Source: ChEMBL document CHEMBL1821652, “QSAR models for predicting enzymatic hydrolysis of new chemical entities in 'soft-drug' design” (Bioorg Med Chem, 2009)

Assay: Half life in human plasma
Type: ADME, cell-free

| Structure (SMILES) | half-life [h] |
| --- | --- |
| CCOC(=O)CNC(=O)OCN(c1ccc([N+](=O)[O-])cc1Oc1ccccc1)S(C)(=O)=O | 15.9 |
| N[C@@H](CC(=O)O)C(=O)O[C@H]1C[C@H](n2cc(F)c(=O)[nH]c2=O)O[C@@H]1CO | 0.898 |
| CCCN(CCC)Cc1ccc(C(=O)OCCOCn2cnc3c(=O)[nH]c(N)nc32)cc1 | 0.15 |
| Cc1cn([C@H]2C=C[C@@H](COC(=O)CNNC(=O)c3ccncc3)O2)c(=O)[nH]c1=O | 1 |
| Cc1cn([C@H]2C=C[C@@H](COC(=O)CNC(=O)c3ccncn3)O2)c(=O)[nH]c1=O | 1 |
| Cc1cn(CCOC(=O)CC[C@H](N)C(=O)N(C)CC(=O)O)c(=O)[nH]c1=O | 1.02 |
| CCCCCCCCCCOC(=O)[C@H](Cc1ccccc1)NC(=O)CN.Cl | 1.02 |
| CCCC(=O)Oc1c(-c2ccc(O)c(O)c2)oc2cc(O)cc(O)c2c1=O | 1.05 |
| COc1ccc2cc([C@H](C)C(=O)OCN(C)C(=O)c3ccccc3)ccc2c1 | 1.2 |
| CC(C)C[C@H]1NC(=O)[C@H](Cc2ccccc2)NC(=O)CNC(=O)[C@@H](C)NC(=O)[C@H](Cc2ccc(O)cc2)NC(=O)/C=C\c2ccccc2OC1=O | 1.2 |
| CN(CC(=O)O)C(=O)[C@@H](N)CCC(=O)OCCOCn1cnc2c(=O)[nH]c(N)nc21 | 1.21 |
| CN(CC(=O)O)C(=O)[C@@H](N)CCC(=O)OCc1ccccc1 | 1.22 |
| CCCCCCCCCCCC(=O)Oc1c(-c2ccc(O)c(O)c2)oc2cc(O)cc(O)c2c1=O | 1.22 |
| CCOC(=O)CN(COC(=O)[C@@H](C)c1ccc2cc(OC)ccc2c1)C(=O)c1ccccc1 | 1.3 |
| O=C(OCc1ccccc1)[C@H]1O[C@@H](Oc2cc3oc(-c4ccc(O)cc4)cc(=O)c3c(O)c2O)[C@H](O)[C@@H](O)[C@@H]1O | 1.47 |
| CCCCOC(=O)[C@@H](N)Cc1ccc(O)c(O)c1 | 1.6 |
| C[C@H](NC(=O)[C@H](N)CCC(=O)OCCc1ccccc1)C(=O)O | 1.62 |
| CC(C)(C)C(=O)OCN(c1ccc([N+](=O)[O-])cc1Oc1ccccc1)S(C)(=O)=O | 1.7 |
| N[C@@H](Cc1ccc(O)c(O)c1)C(=O)OCCCCO | 1.75 |
| CCCCCCCCCCCCOC(=O)[C@H](Cc1ccccc1)NC(=O)CN.Cl | 1.87 |

| Structure (SMILES) | half-life [h] |
| --- | --- |
| C[C@H](NC(=O)[C@H](N)CCC(=O)OCc1ccc(F)cc1)C(=O)O | 2 |
| CC(C)C[C@H]1NC(=O)[C@H](Cc2ccccc2)NC(=O)CNC(=O)[C@@H](C)NC(=O)[C@H](Cc2ccc(O)cc2)NC(=O)OCOC1=O | 2.07 |
| CCCCC(=O)OCOC(=O)Cc1c(C)n(C(=O)c2ccc(Cl)cc2)c2ccc(OC)cc12 | 2.07 |
| C[C@]12CCC(=O)C=C1CC[C@@H]1[C@@H]2[C@@H](O)C[C@@]2(C)[C@H]1CC[C@]2(O)C(=O)OCCl | 2.2 |
| C[C@H](NC(=O)[C@H](N)CCC(=O)OCc1ccccc1)C(=O)O | 2.63 |
| CCOC(=O)CN(COC(=O)Cc1ccccc1Nc1c(Cl)cccc1Cl)C(=O)c1ccccc1 | 2.7 |
| CN(CC(=O)O)C(=O)[C@@H](N)CC(=O)OCc1ccccc1 | 3 |
| C[C@H](NC(=O)[C@H](N)CC(=O)OCc1ccccc1)C(=O)O | 3.52 |
| CC(C)OC(=O)[C@@H](N)Cc1ccc(O)c(O)c1 | 3.97 |
| Cc1cn([C@H]2C=C[C@@H](COC(=O)CN3CCN(c4cc5c(cc4F)c(=O)c(C(=O)O)cn5C4CC4)CC3)O2)c(=O)[nH]c1=O | 4 |
| Cc1cc(C)nc(N(COC(=O)C(C)(C)C)S(=O)(=O)c2ccc(N)cc2)n1 | 4.07 |
| C[C@H](NC(=O)[C@H](N)CC(=O)OCc1ccc(F)cc1)C(=O)O | 4.33 |
| CCOC(=O)[C@H]1O[C@@H](Oc2cc3oc(-c4ccc(O)cc4)cc(=O)c3c(O)c2O)[C@H](O)[C@@H](O)[C@@H]1O | 4.55 |
| CCN(CC)CC(=O)N(COC(=O)C(C)(C)C)c1c(C)cccc1C | 4.67 |
| COC(=O)[C@@H](C)c1ccc2cc(OC)ccc2c1 | 5.27 |
| CCC(=O)O[C@]1(C(=O)OCCl)CC[C@H]2[C@@H]3CCC4=CC(=O)CC[C@]4(C)[C@H]3[C@@H](O)C[C@@]21C | 5.3 |
| CC(C)C[C@H](NC(=O)[C@H](Cc1ccccc1)NC(=O)CNC(=O)CN1C(=O)[C@H](Cc2ccc(O)cc2)NC12CCCC2)C(=O)O | 5.57 |
| CCCC(CCC)C(=O)OCN(C)C(=O)c1ccccc1 | 6.4 |
| CC(C)(C)C(=O)Oc1ccc2c3c1O[C@H]1C(=O)CC[C@@]4(O)[C@@H](C2)N(CC2CC2)CC[C@]314 | 9.37 |
| CC(C)C[C@H](NC(=O)[C@H](Cc1ccccc1)NC(=O)CNC(=O)CN1C(=O)[C@H](Cc2ccc(O)cc2)NC12CCCCC2)C(=O)O | 12.2 |

| Structure (SMILES) | half-life [h] |
| --- | --- |
| Cc1ncc([N+](=O)[O-])n1CCOC(=O)c1ccccc1C(=O)OCCn1c([N+](=O)[O-])cnc1C | 12.4 |
| COC(=O)O[C@]1(C(=O)OCCl)CC[C@H]2[C@@H]3CCC4=CC(=O)CC[C@]4(C)[C@H]3[C@@H](O)C[C@@]21C | 16 |
| CC(C)C[C@H](NC(=O)[C@H](Cc1ccccc1)NC(=O)CNC(=O)CN1C(=O)[C@H](Cc2ccc(O)cc2)NC12CCC(C)CC2)C(=O)O (stereo not given in full) | 18.8 |
| CCCC(CCC)C(=O)OCN(CC(=O)OCC)C(=O)c1ccccc1 | 22 |
| CSCOC(=O)[C@@]1(O)CC[C@H]2[C@@H]3CCC4=CC(=O)C=C[C@]4(C)[C@H]3[C@@H](O)C[C@@]21C | 35 |
| CSCOC(=O)[C@@]1(O)CC[C@H]2[C@@H]3CCC4=CC(=O)CC[C@]4(C)[C@H]3[C@@H](O)C[C@@]21C | 38 |
| CCC(CC)C(=O)Oc1ccc2c3c1O[C@H]1C(=O)CC[C@@]4(O)[C@@H](C2)N(CC2CC2)CC[C@]314 | 44.7 |
| CCOC(=O)CN(C)C(=O)OCN(c1ccc([N+](=O)[O-])cc1Oc1ccccc1)S(C)(=O)=O | 49.2 |
| COc1ccc2c(c1)c(CC(=O)NCCOCCOCCO)c(C)n2C(=O)c1ccc(Cl)cc1 | 74 |
| CC(C)(C)OC(=O)Oc1ccc2c3c1O[C@H]1C(=O)CC[C@@]4(O)[C@@H](C2)N(CC2CC2)CC[C@]314 | > 24 |
| CCN(CC)C(=O)COC(=O)[C@H](C)c1ccc(CC(C)C)cc1 | 0.0167 |
| C[C@@H](C(=O)OCC(=O)N(C)C)c1ccc(-c2ccccc2)c(F)c1 | 0.0183 |
| CCN(CC)C(=O)COC(=O)[C@@H](C)c1ccc(CC(C)C)cc1 | 0.0233 |
| CC(C)Cc1ccc([C@@H](C)C(=O)OCC(=O)N(C)C)cc1 | 0.025 |
| CCN(CC)C(=O)COC(=O)[C@H](C)c1ccc(-c2ccccc2)c(F)c1 | 0.025 |
| CCN(CC)C(=O)COC(=O)[C@@H](C)c1ccc(-c2ccccc2)c(F)c1 | 0.0433 |
| CC1(C)O[C@@H]2C[C@H]3[C@@H]4C[C@H](F)C5=CC(=O)C=C[C@]5(C)[C@@]4(F)[C@@H](O)C[C@]3(C)[C@]2(S[C@H]2CCOC2=O)O1 | 0.0667 |
| CCC[C@@H]1O[C@@H]2C[C@H]3[C@@H]4C[C@H](F)C5=CC(=O)C=C[C@]5(C)[C@@]4(F)[C@@H](O)C[C@]3(C)[C@]2(S[C@H]2CCOC2=O)O1 | 0.0667 |
| CCCSc1ccc2c(c1)nc(NC(=O)OC)n2COC(=O)c1ccc(CN)cc1.Cl.Cl | 0.929 |
| CC(C)C[C@H]1NC(=O)[C@H](Cc2ccccc2)NC(=O)CNC(=O)[C@@H](C)NC(=O)[C@H](Cc2ccc(O)cc2)NC(=O)/C=C\c2ccccc2OCOC1=O | 4.4 |
